# Values quoted from earlier work as cited in article PMC10044445, “Tuning the Anthranilamide Peptidomimetic Design to Selectively Target Planktonic Bacteria and Biofilm” (Antibiotics, 2023).
# Assays:
# Set-up in all cases: method as in PMID 30070287
# Conditions in all cases: cited from earlier work
# S. aureus = system: S. aureus
# MRC-5 human fibroblasts = system: MRC-5 human fibroblasts
# E. coli = system: E. coli
smiles,measurement,setting,value
NCCNC(=O)[C@H](Cc1c[nH]c2ccccc12)NC(=O)c1cc(Br)ccc1NC(=O)c1ccc2ccccc2c1 [Compound 12a],MIC S. aureus,"S. aureus; Table 2, parent compound",3.9 µM
same,MIC90 S. aureus,S. aureus; value of earlier paper,3.9 µM
same,IC50,MRC-5 human fibroblasts,< 20 µM
same,MIC E. coli,"E. coli; Table 2, parent compound",> 125 µM
same,MIC90 E. coli,E. coli; value of earlier paper,> 125 µM
